Laboratory results from PubChem BioAssay AID220 (DTP/NCI, 2004).
Values joined by “and” are separate entries in the source; they are usually repeats but may differ in a detail not shown here. Equal entries are not always repeated. Results filed as inconclusive are left out.

Test system: CD8F1 mice, subcutaneous mammary adenocarcinoma, T/C%
Assay: NCI In Vivo Anticancer Drug Screen. Data for tumor model Mammary Adenocarcinoma CD8F1 (subcutaneous) in CD8F1
Details: higher = larger tumour
How it was run: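 Compound-treated versus vehicle-treated mice with transplantable tumors; survival or tumor size compared as T/C.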

[1] = endpoint: median tumor weight change, dose: 125.0 mg/kg/injection, schedule: Q01DX001 (ip), vehicle: saline
[2] = endpoint: median tumor weight change, dose: 250.0 mg/kg/injection, schedule: Q01DX001 (ip), vehicle: saline
[3] = endpoint: median tumor weight (est.), dose: 12.5 mg/kg/injection, schedule: Q07DX005 (ip), vehicle: water
[4] = endpoint: median tumor weight (est.), dose: 12.5 mg/kg/injection, schedule: Q07DX005 (ip), vehicle: Klucel (hydroxypropylcellulose) (HPC)
[5] = endpoint: median tumor weight (est.), dose: 25.0 mg/kg/injection, schedule: Q07DX005 (ip), vehicle: Klucel (hydroxypropylcellulose) (HPC)
[6] = endpoint: median tumor weight (est.), dose: 50.0 mg/kg/injection, schedule: Q07DX005 (ip), vehicle: Klucel (hydroxypropylcellulose) (HPC)
[7] = endpoint: median tumor weight (est.), dose: 100.0 mg/kg/injection, schedule: Q07DX005 (ip), vehicle: Klucel (hydroxypropylcellulose) (HPC)
[8] = endpoint: median tumor weight (est.), dose: 200.0 mg/kg/injection, schedule: Q07DX005 (ip), vehicle: Klucel (hydroxypropylcellulose) (HPC)
[9] = endpoint: median tumor weight (est.), dose: 50.0 mg/kg/injection, schedule: Q07DX005 (ip), vehicle: saline
[10] = endpoint: median tumor weight (est.), dose: 100.0 mg/kg/injection, schedule: Q07DX005 (ip), vehicle: saline
[11] = endpoint: median tumor weight (est.), dose: 200.0 mg/kg/injection, schedule: Q07DX005 (ip), vehicle: saline
[12] = endpoint: median tumor weight (est.), dose: 400.0 mg/kg/injection, schedule: Q07DX005 (ip), vehicle: saline
[13] = endpoint: median tumor weight change, dose: 62.5 mg/kg/injection, schedule: Q01DX001 (ip), vehicle: saline
[14] = endpoint: median tumor weight (est.), dose: 6.25 mg/kg/injection, schedule: Q07DX005 (ip), vehicle: saline with Tween-80
[15] = endpoint: median tumor weight (est.), dose: 12.5 mg/kg/injection, schedule: Q07DX005 (ip), vehicle: saline with Tween-80
[16] = endpoint: median tumor weight (est.), dose: 12.5 mg/kg/injection, schedule: Q07DX005 (ip), vehicle: saline
[17] = endpoint: median tumor weight (est.), dose: 25.0 mg/kg/injection, schedule: Q07DX005 (ip), vehicle: saline with Tween-80
[18] = endpoint: median tumor weight (est.), dose: 25.0 mg/kg/injection, schedule: Q07DX005 (ip), vehicle: saline
[19] = endpoint: median tumor weight (est.), dose: 50.0 mg/kg/injection, schedule: Q07DX005 (ip), vehicle: saline with Tween-80
[20] = endpoint: median tumor weight (est.), dose: 200.0 mg/kg/injection, schedule: Q07DX005 (ip), vehicle: saline with Tween-80

Structure (SMILES): C=C(C)/C([O-])=N/[N+](C)(C)CC(O)CCCCCCCCCCCC (configuration not stated)
- T/C [1]: 63 % of control
- T/C [2]: 111 % of control

Structure (SMILES): Nc1n[n+](-c2ccc(Cl)cc2)no1
- T/C (endpoint: median tumor weight (est.), dose: 6.25 mg/kg/injection, schedule: Q07DX005 (ip), vehicle: water): 184 % of control
- T/C [3]: 103 % of control
- T/C (endpoint: median tumor weight (est.), dose: 25.0 mg/kg/injection, schedule: Q07DX005 (ip), vehicle: water): 88 % of control

Structure (SMILES): COc1cc2c(c(OC)c1OC)-c1c(cc3c(c1OC)OCO3)CC(C)C(C)(O)C2OC(=O)c1ccccc1 (configuration not stated)
- T/C (endpoint: median tumor weight change, dose: 31.0 mg/kg/injection, schedule: Q01DX001 (ip), vehicle: saline + Tween-80 + alcohol): 93 % of control
- T/C (endpoint: median tumor weight change, dose: 125.0 mg/kg/injection, schedule: Q01DX001 (ip), vehicle: saline + Tween-80 + alcohol): 121 % of control
- T/C (endpoint: median tumor weight change, dose: 250.0 mg/kg/injection, schedule: Q01DX001 (ip), vehicle: saline + Tween-80 + alcohol): 95 % of control
- T/C (endpoint: median tumor weight change, dose: 500.0 mg/kg/injection, schedule: Q01DX001 (ip), vehicle: saline + Tween-80 + alcohol): 110 % of control
- T/C (endpoint: median tumor weight change, dose: 900.0 mg/kg/injection, schedule: Q01DX001 (ip), vehicle: saline + alcohol): 96 % of control
- T/C (endpoint: median tumor weight change, dose: 1800.0 mg/kg/injection, schedule: Q01DX001 (ip), vehicle: saline + alcohol): 124 % of control
- T/C (endpoint: median tumor weight change, dose: 3600.0 mg/kg/injection, schedule: Q01DX001 (ip), vehicle: saline + alcohol): 59 % of control

Structure (SMILES): O=C(CN1CCOCC1)Nc1nc(-c2ccc(Cl)cc2)cs1
- T/C (endpoint: median tumor weight change, dose: 50.0 mg/kg/injection, schedule: Q01DX001 (ip), vehicle: saline with Tween-80): 47 % of control
- T/C (endpoint: median tumor weight change, dose: 100.0 mg/kg/injection, schedule: Q01DX001 (ip), vehicle: saline with Tween-80): 20 % of control
- T/C (endpoint: median tumor weight change, dose: 200.0 mg/kg/injection, schedule: Q01DX001 (ip), vehicle: saline with Tween-80): 49 % of control
- T/C (endpoint: median tumor weight change, dose: 400.0 mg/kg/injection, schedule: Q01DX001 (ip), vehicle: saline with Tween-80): 35 % of control
- T/C (endpoint: median tumor weight change, dose: 800.0 mg/kg/injection, schedule: Q01DX001 (ip), vehicle: saline with Tween-80): 28 % of control

Structure (SMILES): CC[C@@H](C)[C@@H]1NC(=O)C(NC(=O)C(CC(C)C)N(C)C(=O)C2CCCN2C(=O)C(C)O)C(C)OC(=O)C(Cc2ccc(OC)cc2)N(C)C(=O)C2CCCN2C(=O)C(CC(C)C)NC(=O)C(C)C(=O)C(C(C)C)OC(=O)C[C@H]1O (some centres not stated)
- T/C (endpoint: median tumor weight change, dose: 20.0 micrograms/kg/injection, schedule: Q01DX001 (ip), vehicle: distilled water + alcohol): 73 % of control
- T/C (endpoint: median tumor weight change, dose: 40.0 micrograms/kg/injection, schedule: Q01DX001 (ip), vehicle: distilled water + alcohol): 55 % of control
- T/C (endpoint: median tumor weight change, dose: 300.0 micrograms/kg/injection, schedule: Q01DX001 (ip), vehicle: distilled water + alcohol): 63 % of control
- T/C (endpoint: median tumor weight change, dose: 320.0 micrograms/kg/injection, schedule: Q01DX001 (ip), vehicle: distilled water + alcohol): 88 % of control
- T/C (endpoint: median tumor weight change, dose: 600.0 micrograms/kg/injection, schedule: Q01DX001 (ip), vehicle: distilled water + alcohol): 71 % of control
- T/C (endpoint: median tumor weight change, dose: 1200.0 micrograms/kg/injection, schedule: Q01DX001 (ip), vehicle: distilled water + alcohol): 37 % of control

Structure (SMILES): OCC1OC(n2cnc3c(NO)ncnc32)C(O)C1O (configuration not stated)
- T/C [4]: 104 % of control
- T/C [5]: 66 % of control
- T/C [6]: 85 % of control
- T/C [7]: 91 % of control
- T/C [8]: 69 % of control
- T/C (endpoint: median tumor weight (est.), dose: 400.0 mg/kg/injection, schedule: Q07DX005 (ip), vehicle: Klucel (hydroxypropylcellulose) (HPC)): 113 % of control

Structure (SMILES): CN(C)C(=O)SC1=C(c2c(Cl)cccc2Cl)C(=O)c2ccccc21
- T/C (endpoint: median tumor weight change, dose: 125.0 mg/kg/injection, schedule: Q01DX001 (ip), vehicle: Klucel (hydroxypropylcellulose) (HPC)): 101 % of control and 115 % of control
- T/C (endpoint: median tumor weight change, dose: 250.0 mg/kg/injection, schedule: Q01DX001 (ip), vehicle: Klucel (hydroxypropylcellulose) (HPC)): 98 % of control and 109 % of control
- T/C (endpoint: median tumor weight change, dose: 500.0 mg/kg/injection, schedule: Q01DX001 (ip), vehicle: Klucel (hydroxypropylcellulose) (HPC)): 113 % of control
- T/C (endpoint: median tumor weight change, dose: 1000.0 mg/kg/injection, schedule: Q01DX001 (ip), vehicle: Klucel (hydroxypropylcellulose) (HPC)): 74 % of control and 75 % of control
- T/C (endpoint: median tumor weight change, dose: 2000.0 mg/kg/injection, schedule: Q01DX001 (ip), vehicle: Klucel (hydroxypropylcellulose) (HPC)): 22 % of control and 38 % of control

Structure (SMILES): OC1CCCC2CCC[N-]C12.OC1CCCC2CCC[N-]C12.[Mn+2] (configuration not stated)
- T/C [4]: 83 % of control
- T/C [5]: 94 % of control
- T/C [6]: 81 % of control
- T/C [7]: 67 % of control
- T/C [8]: 43 % of control

Structure (SMILES): CC(=O)CC(c1ccccc1)c1c(O)c2ccccc2oc1=O (configuration not stated)
- T/C (endpoint: median tumor weight change, dose: 0.01 mg/kg/injection, schedule: Q01DX001 (ip), vehicle: Klucel (hydroxypropylcellulose) (HPC)): 183 % of control
- T/C (endpoint: median tumor weight change, dose: 0.02 mg/kg/injection, schedule: Q01DX001 (ip), vehicle: Klucel (hydroxypropylcellulose) (HPC)): 157 % of control
- T/C (endpoint: median tumor weight change, dose: 0.05 mg/kg/injection, schedule: Q01DX001 (ip), vehicle: Klucel (hydroxypropylcellulose) (HPC)): 196 % of control
- T/C (endpoint: median tumor weight change, dose: 0.1 mg/kg/injection, schedule: Q01DX001 (ip), vehicle: Klucel (hydroxypropylcellulose) (HPC)): 203 % of control
- T/C (endpoint: median tumor weight change, dose: 0.2 mg/kg/injection, schedule: Q01DX001 (ip), vehicle: Klucel (hydroxypropylcellulose) (HPC)): 192 % of control

Structure (SMILES): Nc1cccc(=O)[nH]1
- T/C [9]: 21 % of control
- T/C [10]: 68 % of control
- T/C [11]: 70 % of control
- T/C [12]: 96 % of control and 100 % of control
- T/C (endpoint: median tumor weight (est.), dose: 400.0 mg/kg/injection, schedule: Q07DX005 (ip), vehicle: suspension in saline): 47 % of control
- T/C (endpoint: median tumor weight (est.), dose: 800.0 mg/kg/injection, schedule: Q07DX005 (ip), vehicle: saline): 78 % of control
- T/C (endpoint: median tumor weight (est.), dose: 800.0 mg/kg/injection, schedule: Q07DX005 (ip), vehicle: suspension in saline): 56 % of control
- T/C (endpoint: median tumor weight (est.), dose: 1600.0 mg/kg/injection, schedule: Q07DX005 (ip), vehicle: suspension in saline): 59 % of control
- T/C [13]: 55 % of control
- T/C [1]: 78 % of control
- T/C [2]: 90 % of control
- T/C (endpoint: median tumor weight change, dose: 500.0 mg/kg/injection, schedule: Q01DX001 (ip), vehicle: saline): 72 % of control
- T/C (endpoint: median tumor weight change, dose: 1000.0 mg/kg/injection, schedule: Q01DX001 (ip), vehicle: saline): 70 % of control

Structure (SMILES): CN1CCN(CCCN2c3ccccc3Sc3ccc(C(F)(F)F)cc32)CC1
- T/C [14]: 178 % of control
- T/C (endpoint: median tumor weight (est.), dose: 6.25 mg/kg/injection, schedule: Q07DX005 (ip), vehicle: saline): 183 % of control
- T/C [15]: 202 % of control
- T/C [16]: 97 % of control
- T/C [17]: 65 % of control
- T/C [18]: 108 % of control
- T/C [9]: 162 % of control
- T/C (endpoint: median tumor weight (est.), dose: 100.0 mg/kg/injection, schedule: Q07DX005 (ip), vehicle: saline with Tween-80): 95 % of control
- T/C [10]: 70 % of control

Structure (SMILES): C1CCC2[N-]CC3CCCCC3[N-]CC3CCCCC3[N-]CC3CCCCC3[N-]CC2C1.[Cu] (configuration not stated)
- T/C (endpoint: median tumor weight (est.), dose: 6.25 mg/kg/injection, schedule: Q07DX005 (ip), vehicle: Klucel (hydroxypropylcellulose) (HPC)): 71 % of control
- T/C [4]: 99 % of control
- T/C [5]: 80 % of control

Structure (SMILES): OCCOCC(F)(F)F
- T/C [15]: 57 % of control
- T/C [17]: 102 % of control and 106 % of control
- T/C [19]: 97 % of control and 104 % of control
- T/C [20]: 67 % of control
- T/C (endpoint: median tumor weight (est.), dose: 800.0 mg/kg/injection, schedule: Q07DX005 (ip), vehicle: saline with Tween-80): 70 % of control

Structure (SMILES): Oc1ccc(CCl)c2cccnc12
- T/C [13]: 54 % of control
- T/C [1]: 78 % of control

Structure (SMILES): N=C(N)c1ccc(/C=C/c2ccc(C(=N)N)cc2O)cc1
- T/C [3]: 75 % of control and 76 % of control

Structure (SMILES): O=C(CO)c1ccc([N+](=O)[O-])cc1
- T/C [14]: 117 % of control
- T/C [15]: 112 % of control
- T/C [17]: 91 % of control
- T/C [19]: 118 % of control
- T/C [20]: 86 % of control

Structure (SMILES): OCC1OC(n2cnc3c(Cl)ncnc32)C(O)C1O (configuration not stated)
- T/C [16]: 90 % of control
- T/C [18]: 26 % of control
- T/C [10]: 28 % of control
- T/C [11]: 71 % of control
- T/C [12]: 115 % of control
